Legend:
[1] = system: U87MG glioblastoma CDX; test: Tumor hemoglobin level (indirect angiogenesis) in U87MG CDX; format: in vivo, cd1 nu/nu mice (human GBM cell line); conditions: KcAng(1-7) 1 μg/kg/d, Losartan 20 mg/kg/d, or both
Procedure: Efficacy of treatment was evaluated by: […] Mice with U87MG cell CDX were randomized at day 0. KcAng(1-7) was injected subcutaneously (1 μg/kg) on a daily basis. Losartan was administered intraperitoneal at 20 mg/kg/day. […] In brief, tumors were homogenized in double-distilled water. Eighty microliters of homogenates were mixed with 1 mL of Drabkin's solution and incubated for 15 min at room temperature. After centrifugation at 400×g for 5 min, the supernatants were subjected to absorbance measurement at 540 nm. The absorption, which is proportional to hemoglobin concentration, was divided by tumor weight.

[2] = system: U251MG glioblastoma CDX; test: Subcutaneous U251MG glioblastoma CDX: time of tumor progression; format: in vivo, cd1 nu/nu mice (human GBM cell line); conditions: KcAng(1-7) 1 μg/kg/d, Losartan 20 mg/kg/d, or both
Procedure: Effects of KcAng(1-7) were evaluated in vivo in a subcutaneous GBM xenograft model in nude mice. Insurgence of neurologic phenomena and differences in the survival rates were evaluated. Human GBM cell lines U87MG and U251MG were used. Cell lines were grown in DMEM nutrient mixture supplemented with 10% fetal bovine serum, 1% penicillin/streptomycin, and 25 mM HEPES buffer. All cell lines were cultured at 37° C. in a humidified atmosphere consisting of 5% CO2 and 95% air. Medium was changed every 2 days and the cell morphology was evaluated under microscope daily. Six-week-old male athymic nude mice (age 5-7 weeks) were housed with free access to food and water in a temperature-controlled room. Each group is represented by 10 xenograft cd1 nu/nu mice. […] Xenografts were measured every four days with a digital caliper in two perpendicular dimensions. Tumor volume was calculated according to the following formula: In vivo tumor response to treatment was evaluated using the following parameters: […] […] TP, TTP and DFS were analyzed by Kaplan-Meier curves and Gehan's generalized Wilcoxon test. […]

Lys-Asp-Arg-Val-Abu/Ala-Ile-His-Abu/Ala (KDRVAIHA; not fully specified; cyclic thioether (Abu/Ala bridge); VARIANT (5)..(5) /replace=“Abu”; VARIANT (8)..(8) /replace=“Abu”; SITE (1)..(8) /note=“Variant residues given in the sequence have no preference with respect to those in the annotations for variant positions”) [KcAng(1-7)]
Tumor hemoglobin level, mean (± SEM) [1]: 8.8 ± 1.0 mg hemoglobin/g of tissue | Time of tumor progression - TTP, mean (days ± SEM) [2]: 14.4 ± 0.8 days

From US20220257698A1, “ANGIOTENSIN TYPE 2 (AT2) RECEPTOR AGONISTS FOR USE IN THE TREATMENT OF CANCER” (LANTHIOPEP B.V., priority 2019, published 2022)
